According to patent publication US12612384B2, “Heterocyclic CYP4A inhibitor compounds and compositions thereof” (MBD CO., LTD., priority 2021, dated 2026):

These compounds were tested against T1, CYP4A (Homo sapiens, UniProt Q02928) (assay: CYP4A enzyme assay (luminescence, Luciferin-ME)). Details: Compound concentration 5 μM; 50%-70%; read-out: % Inhibition 50%-70%.
T1 construct: purchased; host or cells: bacterial membranes ('bactosome')
T1 sequence (Q02928 5-519): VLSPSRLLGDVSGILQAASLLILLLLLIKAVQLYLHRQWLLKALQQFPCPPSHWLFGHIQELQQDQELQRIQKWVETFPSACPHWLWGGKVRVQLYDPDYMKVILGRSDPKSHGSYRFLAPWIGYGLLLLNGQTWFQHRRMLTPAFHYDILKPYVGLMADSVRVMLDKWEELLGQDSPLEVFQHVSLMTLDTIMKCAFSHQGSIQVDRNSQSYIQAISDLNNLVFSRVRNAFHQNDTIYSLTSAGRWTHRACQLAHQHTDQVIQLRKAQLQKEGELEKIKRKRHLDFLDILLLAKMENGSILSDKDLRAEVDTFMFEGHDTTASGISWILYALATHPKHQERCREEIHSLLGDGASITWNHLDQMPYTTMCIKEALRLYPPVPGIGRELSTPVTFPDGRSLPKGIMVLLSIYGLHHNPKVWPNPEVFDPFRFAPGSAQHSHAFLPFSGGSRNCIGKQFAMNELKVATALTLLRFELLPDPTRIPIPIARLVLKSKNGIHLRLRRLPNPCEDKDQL
Format: biochemical
In short: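 Compounds (5 μM) were preincubated 15 min at room temperature with CYP4A bactosomes in 100 mM KPO4, 0.1% BSA, 1 mM DTT. Reaction ran 30 min at room temperature after adding 5 mM Luciferin-ME and NADPH regeneration system. Luminescence after 15 min with detection reagent; inhibition judged by comparing well signals.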

| Structure (SMILES) | inhibition at 5 µM [%] |
| --- | --- |
| O=C(C1CCCN(S(=O)(=O)c2ccncc2)C1)N1CCN(c2cc(C(F)(F)F)nc3ccccc23)CC1 (stereo not shown) [Example 128, (1-(pyridin-4-ylsulfonyl)piperidin-3-yl)(4-(2-(trifluoromethyl)quinolin-4-yl)piperazin-1-yl)methanone] | 50 to 70 |
| Cc1nc(N2CCN(C(=O)C3CCCN(S(=O)(=O)c4ccc(F)cc4)C3)CC2)c2ccccc2n1 (stereo not shown) [Example 81, (1-(4-fluorophenylsulfonyl)piperidin-3-yl)(4-(2-methylquinazolin-4-yl)piperazin-1-yl)methanone] | 50 to 70 |

Other lines, results leading:

| inhibition at 5 µM [%] | Structure (SMILES) |
| --- | --- |
| 50 to 70 | COc1ccc2c(N3CCN(C(=O)C4CCCN(C(=O)C5CCCCC5)C4)CC3)ccnc2c1 (stereo not shown) [Example 92, (4-(7-methoxyquinolin-4-yl)piperazin-1-yl)(1-(cyclohexylcarbonyl)piperidin-3-yl)methanone] |
| 50 to 70 | Cc1cc(N2CCN(C(=O)C3CCCN(C(=O)c4ccncc4)C3)CC2)c2ccccc2n1 (stereo not shown) [Example 104, (1-isonicotinoylpiperidin-3-yl)(4-(2-methylquinolin-4-yl)piperazin-1-yl)methanone] |
| 50 to 70 | O=C(C1CCCN(S(=O)(=O)C2CC2)C1)N1CCN(c2ccnc3ccccc23)CC1 (stereo not shown) [Example 122, (1-(cyclopropylsulfonyl)piperidin-3-yl)(4-(quinolin-4-yl)piperazin-1-yl)methanone] |
| 50 to 70 | O=C(c1ccccc1)N1CCCC(C(=O)N2CCN(c3ccnc4ccccc34)CC2)C1 (stereo not shown) [Example 113, (1-benzoylpiperidin-3-yl)(4-(quinolin-4-yl)piperazin-1-yl)methanone] |
| 50 to 70 | Cc1cc(N2CCN(C(=O)C3CCCN(C(=O)c4ccccc4)C3)CC2)c2ccccc2n1 (stereo not shown) [Example 102, (1-benzoylpiperidin-3-yl)(4-(2-methylquinolin-4-yl)piperazin-1-yl)methanone] |

Same assay, conditions: Compound concentration 5 μM; 70%-90%; read-out: % Inhibition 70%-90%

| Structure (SMILES) | inhibition at 5 µM [%] |
| --- | --- |
| NCCn1ccnc1S(=O)(=O)N1CC[C@H](C(=O)N2CCN(c3ccnc4cc(F)ccc34)CC2)C1 [Example 150, (S)-(1-((1-(2-aminoethyl)-1H-imidazol-2-yl)sulfonyl)pyrrolidin-3-yl)(4-(7-fluoroquinolin-4-yl)piperazin-1-yl)methanone] | 70 to 90 |
| Cc1nn(C)c(C)c1S(=O)(=O)N1CC[C@H](C(=O)N2CCN(c3ccnc4ccccc34)CC2)C1 [Example 151, (S)-(4-(quinolin-4-yl)piperazin-1-yl)(1-((1,3,5-trimethyl-1H-pyrazol-4-yl)sulfonyl)pyrrolidin-3-yl)methanone] | 70 to 90 |
| O=C(C1CCCN(S(=O)(=O)c2ccc(O)cc2)C1)N1CCN(c2ncnc3ccccc23)CC1 (stereo not shown) [Example 78, (1-((4-hydroxyphenyl)sulfonyl)piperidin-3-yl)(4-(quinazolin-4-yl)piperazin-1-yl)methanone] | 70 to 90 |
| O=C(C1CCN(S(=O)(=O)c2ccc(Br)cc2)C1)N1CCN(c2ccnc3ccccc23)CC1 (stereo not shown) [Example 31, (1-((4-bromophenyl)sulfonyl)pyrrolidin-3-yl)(4-(quinolin-4-yl)piperazin-1-yl)methanone] | 70 to 90 |
| Cc1nn(C)c(C)c1S(=O)(=O)N1CC[C@@H](C(=O)N2CCN(c3ccnc4ccccc34)CC2)C1 [Example 152, (R)-(4-(quinolin-4-yl)piperazin-1-yl)(1-((1,3,5-trimethyl-1H-pyrazol-4-yl)sulfonyl)pyrrolidin-3-yl)methanone] | 70 to 90 |

More lines, now with the values ahead:

| inhibition at 5 µM [%] | Structure (SMILES) |
| --- | --- |
| 70 to 90 | CC(=O)Nc1ccc(C(=O)N2CCCC(C(=O)N3CCN(c4ccnc5cc(F)ccc45)CC3)C2)cc1 (stereo not shown) [Example 105, N-(4-(3-(4-(7-fluoroquinolin-4-yl)piperazine-1-carbonyl)piperidine-1-carbonyl)phenyl)acetamide] |
| 70 to 90 | O=C(C1CCN(S(=O)(=O)c2cccs2)C1)N1CCN(c2ccnc3ccccc23)CC1 (stereo not shown) [Example 36, (4-(quinolin-4-yl)piperazin-1-yl)(1-(thiophen-2-ylsulfonyl)pyrrolidin-3-yl)methanone] |
| 70 to 90 | COc1ccc(C(=O)N2CCCC(C(=O)N3CCN(c4ccnc5cc(F)ccc45)CC3)C2)cc1 (stereo not shown) [Example 110, (4-(7-fluoroquinolin-4-yl)piperazin-1-yl)(1-(4-methoxybenzoyl)piperidin-3-yl)methanone] |
| 70 to 90 | O=C(c1ccc(F)cc1)N1CCCC(C(=O)N2CCN(c3ccnc4cc(Cl)ccc34)CC2)C1 (stereo not shown) [Example 84, (4-(7-chloroquinolin-4-yl)piperazin-1-yl)(1-(4-fluorophenylcarbonyl)piperidin-3-yl)methanone] |
| 70 to 90 | COc1ccc(C(=O)N2CCCC(C(=O)N3CCN(c4ccnc5ccccc45)CC3)C2)cc1 (stereo not shown) [Example 116, (1-(4-methoxyphenylcarbonyl)piperidin-3-yl)(4-(quinolin-4-yl)piperazin-1-yl)methanone] |
| 70 to 90 | O=C(c1ccc(F)cc1)N1CCCC(C(=O)N2CCN(c3ccnc4cc(F)ccc34)CC2)C1 (stereo not shown) [Example 106, (1-(4-fluorobenzoyl)piperidin-3-yl)(4-(7-fluoroquinolin-4-yl)piperazin-1-yl)methanone] |
| 70 to 90 | Cc1ccc(S(=O)(=O)N2CCC(C(=O)N3CCN(c4ccnc5ccccc45)CC3)C2)s1 (stereo not shown) [Example 37, (1-((5-methylthiophen-2-yl)sulfonyl)pyrrolidin-3-yl)(4-(quinolin-4-yl)piperazin-1-yl)methanone] |

Same assay, conditions: Compound concentration 5 μM; Greater than 90%; read-out: % Inhibition Greater than 90%

| Structure (SMILES) | inhibition at 5 µM [%] |
| --- | --- |
| Cc1n[nH]c(C)c1S(=O)(=O)N1CCC(C(=O)N2CCN(c3ccnc4ccccc34)CC2)C1 (stereo not shown) [Example 45, (1-((3,5-dimethyl-1H-pyrazol-4-yl)sulfonyl)pyrrolidin-3-yl)(4-(quinolin-4-yl)piperazin-1-yl)methanone] | > 90 |
| O=C(C1CCN(S(=O)(=O)c2ccc(-c3cnco3)cc2)C1)N1CCN(c2ccnc3cc(F)ccc23)CC1 (stereo not shown) [Example 15, (4-(7-fluoroquinolin-4-yl)piperazin-1-yl)(1-((4-(oxazol-5-yl)phenyl)sulfonyl)pyrrolidin-3-yl)methanone] | > 90 |
| O=C(C1CCN(S(=O)(=O)c2ccc(N3CCOCC3)cc2)C1)N1CCN(c2ccnc3ccccc23)CC1 (stereo not shown) [Example 35, (1-((4-morpholinophenyl)sulfonyl)pyrrolidin-3-yl)(4-(quinolin-4-yl)piperazin-1-yl)methanone] | > 90 |
| Cn1cnc(S(=O)(=O)N2CCC(C(=O)N3CCN(c4ccnc5ccccc45)CC3)C2)c1 (stereo not shown) [Example 46, (1-((1-methyl-1H-imidazol-4-yl)sulfonyl)pyrrolidin-3-yl)(4-(quinolin-4-yl)piperazin-1-yl)methanone] | > 90 |
| O=C(C1CCN(S(=O)(=O)c2ccc(-c3cccnc3)cc2)CC1)N1CCN(c2ccnc3cc(F)ccc23)CC1 [Example 58, (4-(7-fluoroquinolin-4-yl)piperazin-1-yl)(1-((4-(pyridin-3-yl)phenyl)sulfonyl)piperidin-4-yl)methanone] | > 90 |
| CC(=O)Nc1nc(C)c(S(=O)(=O)N2CCC(C(=O)N3CCN(c4ccnc5ccccc45)CC3)C2)s1 (stereo not shown) [Example 47, N-(4-methyl-5-((3-(4-(quinolin-4-yl)piperazine-1-carbonyl)pyrrolidin-1-yl)sulfonyl)thiazol-2-yl)acetamide] | > 90 |
| CC(=O)Nc1ccc(S(=O)(=O)N2CCC(C(=O)N3CCN(c4ccnc5ccccc45)CC3)C2)cn1 (stereo not shown) [Example 30, N-(5-((3-(4-(quinolin-4-yl)piperazine-1-carbonyl)pyrrolidin-1-yl)sulfonyl)pyridin-2-yl)acetamide] | > 90 |

More lines, now with the values ahead:

| inhibition at 5 µM [%] | Structure (SMILES) |
| --- | --- |
| > 90 | O=C([C@H]1CCN(S(=O)(=O)c2ncc[nH]2)C1)N1CCN(c2ccnc3cc(F)ccc23)CC1 [Example 146, (S)-(1-((1H-imidazol-2-yl)sulfonyl)pyrrolidin-3-yl)(4-(7-fluoroquinolin-4-yl)piperazin-1-yl)methanone] |
| > 90 | Cn1ccnc1S(=O)(=O)N1CC[C@H](C(=O)N2CCN(c3ccnc4cc(F)ccc34)CC2)C1 [Example 7, (S)-(4-(7-fluoroquinolin-4-yl)piperazin-1-yl)(1-((1-methyl-1H-imidazol-2-yl)sulfonyl)pyrrolidin-3-yl)methanone] |
| > 90 | O=C(C1CCN(S(=O)(=O)c2ncn[nH]2)C1)N1CCN(c2ccnc3cc(F)ccc23)CC1 (stereo not shown) [Example 10, (1-((1H-1,2,4-triazol-5-yl)sulfonyl)pyrrolidin-3-yl)(4-(7-fluoroquinolin-4-yl)piperazin-1-yl)methanone] |
| > 90 | Cc1nn(C)c(C)c1S(=O)(=O)N1CCC(C(=O)N2CCN(c3ccnc4cc(F)ccc34)CC2)C1 (stereo not shown) [Example 12, (4-(7-fluoroquinolin-4-yl)piperazin-1-yl)(1-((1,3,5-trimethyl-1H-pyrazol-4-yl)sulfonyl)pyrrolidin-3-yl)methanone] |
| > 90 | Cn1ccnc1S(=O)(=O)N1CC[C@@H](C(=O)N2CCN(c3ccnc4cc(F)ccc34)CC2)C1 [Example 6, (R)-(4-(7-fluoroquinolin-4-yl)piperazin-1-yl)(1-((1-methyl-1H-imidazol-2-yl)sulfonyl)pyrrolidin-3-yl)methanone] |
